This is an account of results in US10526585B2 (priority 2015, dated 2020).

The format of this assay is biochemical. Conditions: pH 7.5.

Regarding `[Ca+2]` [Ca^2+], the “DON [ppm]” value was 1.98 ppm.

For the molecule `[Cu+2]` [Cu^2+], the “DON [ppm]” value worked out at 2.61 ppm.

As for `[Fe+2]` [Fe^2+], the “DON [ppm]” value was 2.17 ppm.

For `N[C@@H](CCCCNC1=CC(=O)C(=O)C=C1C[C@H](N)C(=O)O)C(=O)O` [LTQ, lysine tyrosylquinone], the “DON [ppm]” value was determined as 2.04 ppm.

For the molecule `[Mg+2]` [Mg^2+], the “DON [ppm]” value is given as 1.90 ppm.

`[Mn+2]` [Mn^2+]: the “DON [ppm]” value amounted to 2.57 ppm.

Take `O=C(O)c1cc(C(=O)O)c2c(n1)C(=O)C(=O)c1cc(C(=O)O)[nH]c1-2` [PCC, pyrroloquinoline quinone]: the “DON [ppm]” value was 1.94 ppm.

As to `COS(=O)(=O)[O-].C[n+]1c2ccccc2nc2ccccc21` [PMS, phenazine methosulphate], the “DON [ppm]” value stood at 1.95 ppm.

As for `[Zn+2]` [Zn^2+], the “DON [ppm]” value worked out at 2.46 ppm.

Regarding `COC1=C(OC)C(=O)C(CC=C(C)C)=C(C)C1=O` [coenzyme Q1], the “DON [ppm]” value is 8.58 ppm.

Consider `CN(C)c1ccc2nc3ccc(=[N+](C)C)cc-3sc2c1` [methylene blue], for which the “DON [ppm]” value was 6.88 ppm.

As for topaquinone [TPQ], the “DON [ppm]” value turned out to be 2.41 ppm.

Take tryptophan tryptophylquinone [TTQ]: the “DON [ppm]” value is given as 2.32 ppm.
